The values below come from patent publication EP0139358B1, “N6-substituted diarylalkyl adenosines, processes for their production and pharmaceutical compositions comprising the same” (priority 1983, dated 1985).

Data set [1] concerns Swiss-Webster male mice. The experiment in a line: Mouse Activity and Screen Test (MAST): inhibition of spontaneous locomotion (LI). Format: in vivo. Particulars: for Inhibition of mouse locomotor activity: one hour prior to testing, vs vehicle; for minimal effective dose: Mus musculus, ip, read-out: MAST LI LAD. Here is the method: (§1) Treatments are administered intraperitoneally one hour prior to testing. […] Compounds are dissolved or suspended in 0.2% Methocel. Control animals are injected with Methocel.
Immediately following the screen test, the final phase of testing is initiated by placing each group of three mice in one actophotometer (Life Sciences, 22, 1067-1076, 1978). The actophotometer consists of a cylindrical chamber whose center is occupied by another cylinder which contains the illumination for six photocells located on the perimeter of the chamber. Six light-beam interruptions equal one count. Locomotor activity is recorded by computer at ten minute intervals for 60 minutes. […]

The subject of data set [2] is Swiss-Webster male mice. Description: Mouse Activity and Screen Test (MAST): screen test (ST). The format is in vivo. Particulars: for Inhibition of screen test failure: percent of mice falling off the screen; for MAST ST LAD: lowest dose at which an A rating (60-100%) is achieved, screen test, intraperitoneally. Here is the method:
as §1
The compounds are identified in the Examples.

Data set [3] relates to Long-Evans rats or squirrel-monkeys. Description: Antipsychotic lever-push shock avoidance protocol (SIDR). The format is in vivo. Particulars: Rattus norvegicus; shock avoidance lever pushing; read-out: SIDR ED50. Here is the method:
Representative compounds of the invention (identified in the Examples) were also tested for antipsychotic activity according to the following protocol (SIDR). […] Mature male Long-Evans rats or squirrel-monkeys are conditioned to push a lever in order to avoid a painful electric footshock. If the animal fails to push the lever, he receives a shock every ten seconds until the lever is pushed. Shocks can be terminated by pushing the lever. Thereafter, as long as the lever is pushed at least once every 20 seconds, there will be no shock. Each animal acts as its own control; one weekly session is used to establish baseline behavior and another session later in the week is used as a drug session. Once patterns of avoidance are established, the effects of standard and unknown compounds are studied. All events are electronically programmed and the response to these events counted or used as feedback to the program.

Data set [4] deals with conscious rat. Description: Antihypertensive evaluation (AHP3): aortic blood pressure and heart rate. Format: in vivo. Particulars: lowest dose tested at which a >10% reduction in blood pressure for four consecutive hours is achieved; conscious rat; read-out: AHP3 BP LAD. An excerpt:
[…] EVALUATION (AHP3)
This test procedure is described in the following paragraphs.
A Method for the Direct Monitoring of Aortic Blood Pressure and Heart Rate from Conscious Rats
The continuous monitoring of pulsatile blood pressure (BP) from unrestrained conscious rats surgically equipped with polyethylene cannulas was accomplished by means of a computer assisted data capture scheme (CADCS). The absic elements of the methodology are the cannulation procedure and the CADCS.
Cannulation Procedure: Rats were anesthetized with Telazol (1:1 tiletamine HCI and zolazepam HCI); 20-40 mg/kg IM and the descending aorta exposed via a midline incision. Cannulas fabricated from polyethylene tubing were inserted into the aorta via an undersized puncture hole below the renal arteries. The puncture hole was made by a 23 G disposable needle with a section of the aorta clamped off above and below the puncture site. The cannulas, consisting of a PE100 (0.86 mm ID) body and a PE50 (0.58 mm ID) tip, were attached to a trocar, inserted through the psoas muscle, and passed subcutaneously along the midline of the back and externalized between the ears. The cannulas were anchored to the psoas muscle and between the scalulae (3-0 green braided suture). The midline incision was closed in two steps (muscle first, skin second) using continuous over-and over sutures (4-0 chronic). Each rat was then given penicillin 30,000 units subcutaneously (Penicillin G Procaine Sterile Suspension).
The rats were fitted with a harness-spring-swivel assembly designed to protect the cannula and to provide the rat relative freedom of movement. The harnesses were fabricated from nylon hook and loop tape cemented to a metal plate to which spring wires (18-8 stainless steel), were attached to brass swivels. Each polyethylene cannula was channeled through a spring and connected through a swivel to a pressure transducer (Model P23Gb; Statham Instruments; Hato Rey, Puerto Rico) and an infusion pump (Sage model 234-7; Orion Research, Cambridge, Ma) by means of PE100 tubing. While on test, each rat received a continuous slow infusion of heparinized saline solution (approximately 400 I or 40 units of heparin per 24 hour period) to prevent clot formation. Additional "flushes" of the cannula with heparinized saline were carried out when the aortic pulse pressure (systolic minus diastolic) was less than 25 mm Hg.
CADCS: The pulsatile blood pressure and heart rate of each of 32 rats was monitored every minute by means of two in-laboratory microcomputers communicating directly with a data concentrator computer. The data were first stored on the data concentrator disk and then transferred to a magnetic tape for analysis and report generation by the main research computer. The overall scheme involved modulating the primary signal from the pressure transducer, generating the primary data set of the one-minute values for systolic, diastolic, and mean blood pressures and heart rate by the in-lab microcomputer and the storage, analysis, and report generation by the main research computer.
The transducers were connected to analog signal conditioning modules. The modules providing a regulated excitation voltage for the transducers, amplification as required to interface the microprocessors and an active low pass filter to compensate for the pressure wave form distortion produced by the flexible, fluid filled, narrow cannula.
The microcomputers (one for each of two groups of 16 rats) were connected to the input components through the module interface units, an analog-to-digital converter for the pressure wave form signal and the digital inputs for the dose and event marker switches. The microcomputer controlled the sequential acquisition of data from the modular interface units through an internal synchronous time-of-day clock/ time base generator. […]

The test system of data set [5] is rat heart. The experiment in a line: Coronary blood flow (PCS2A): isolated perfused heart. Particulars: isolated perfused rat heart. Here is the method:
CORONARY BLOOD FLOW (PCS2A)
Male rats (400-600 gms) are pretreated with Na haparin 2000 units and anesthetized with Na pentobarbital (50 mg/kg) administered intraperitoneally. Once anesthetized, the rat heart is rapidly excised, the ascending aorta fitted to the aortic perfusion cannula, and […] with a ligature. The coronary arteries are perfused initially at a rate of about 15 ml/min for two to three minutes, afterwhich they are perfused at constant pressure of 70 mm Hg and temperature of 37°C. The electrocardiogram (ECG) is recorded using two platinum electrodes positioned at the base and apex of the left ventricle. A second heart is excised, cannulated, and perfused by the same method outlined above. Both hearts are tested in parallel. The standard physiological salt solution (PSS) is a modified Krebs-Hanseleit bicarbonate buffer of the following composition in mM concentration: NaCI, 127; NaHC03, 25; dextrose, 5.5; Na Pyruvate, 2.0: KCI, 4.7; MgS04, 1.1; KH 2P04, 1.2; CaCl2·2H2O, 2.5; CaNa2 EDTA, 0.05.
A 30-minute stabilization period is observed before starting the test protocol.
The microprocessor control system is a servo mechanism which permits coronary perfusion pressure (CPP) and drug concentration to be maintained constant independent of changes in coronary flow. The level at which CPP and drug concentration are maintained can be changed by commands communicated through the microprocessor keyboard. Dose-response curves are carried out by perfusing concentrated drug solution (DC) at rates proportional to total coronary flow (CFT). Drug concentrations are increased by proportionate increases in the rate of DC infusion over CFT via the microprocessor keyboard. The proportional flow rates for DC:CFT is about .0002:1 at the low end and .02: at the high end of the dose-response curve. Dose-response curves encompassing at least two log doses are carried out by preparing two DCs with a concentration difference of 1:100. Following the first dose range of two log doses, the DC are switched, proportional pumping rate adjusted, and the dose-response curve continued for another two log doses. The standard dose-response curve is carried out in one-half log dose increments starting at a subthreshold dose and ending at a dose which produces near maximal response in activity. Standard reference compounds are tested over the range of 10-^9 to 10-^6M.
Measurements are for heart rate (HR) and coronary flow (CF). Units are: HR, beats/minute (bpm) and CF, milliliters/minute (ml/min). HR is calculated from the ECG strip chart recording and CF is calculated by recording analog outputs from pumps 1 and 2. Outputs from pump #1 = CFT and the output from pump #2 = CF for heart B (CFg). CF for heart A (CFA) is calculated (CFT - CFB = CFA).
Using the above technique, the effects of the compound of Examples 1 and 2 are as follows: […]

The test system of data set [6] is male Swiss-Webster mice. Description: Analgesic evaluation: antiwrithing (AW) test, acetic acid. Particulars: Mus musculus, sc; subcutaneously, 20 minutes before acetic acid; dose to suppress writhing by 50%; read-out: AW ED50. The format is in vivo. Here is the method: The antiwrithing (AW) test provides preliminary assessment of compounds with potential analgesic activity. The test is performed in male Swiss-Webster mice. Compounds are administered subcutaneously in aqueous 0.2% methylcellulose or other appropriate vehicles in volumes of 10 ml/kg. Dosages represent activity moiety.
Acetic acid (0.6%, 10 ml/kg) is injected intraperitroneally 20 minutes after administration of the adenosine agonist. Writhing movements are counted for five minutes starting seven minutes after the acetic acid injection. Writhing is defined as abdominal constriction and stretching of the body and hind legs with concave arching of the back. […] EDso values are calculated by nonlinear regression analysis.
On the technique in general: Writhing tests count abdominal constrictions after an irritant is injected.

Where [7] appears, read: coronary flow, read-out: PCS2A CF ED50.
The mark [8] stands for this setting: heart rate, read-out: PCS2A HR ED50.

Where two headings read alike, the source gives them in different places.

Regarding `Nc1nc(NCC(c2ccccc2)c2ccccc2)c2ncn([C@@H]3O[C@H](CO)[C@@H](O)[C@H]3O)c2n1` [Example 4, N^6-(2,2-Diphenylethyl)-2-aminoadenosine], the “Inhibition of mouse locomotor activity” value in data set [1] (10 mg/kg intraperitoneally) turned out to be 64%; in data set [1] (30 mg/kg intraperitoneally), 87%; in data set [1] (100 mg/kg intraperitoneally) it was 95%. For the same compound, the minimal effective dose in data set [1] turned out to be 10 mg/kg; in data set [4], 30 mg/kg. The “Inhibition of screen test failure” value was 0% in data set [2] (10 mg/kg intraperitoneally), 11% in data set [2] (30 mg/kg intraperitoneally) and 22% in data set [2] (100 mg/kg intraperitoneally). In data set [2], the “MAST ST LAD” value is listed as >100 mg/kg. The ED50 – broadly, the dose at which the effect has come halfway, by size or by number of responders – in data set [3] is 3.8 mg/kg. In addition, the figures for the EC50 in data set [5] (setting [7]) and in data set [5] (setting [8]) were 1000 nM and > 100 nM, respectively.
For `OC[C@H]1O[C@@H](n2cnc3c(NC(c4ccccc4)c4ccccc4)ncnc32)[C@H](O)[C@@H]1O` [Example 5, N^6-Diphenylmethyladenosine, reference compound], the figures for the minimal effective dose in data set [1] and in data set [4] were 100 mg/kg and > 10 mg/kg, respectively. Moreover, the “MAST ST LAD” value in data set [2] is >100 mg/kg. In addition, the median effective dose (ED50) in data set [3] was > 50 mg/kg. Also, the EC50 in data set [5] (setting [7]) and in data set [5] (setting [8]) was > 3000 nM each time.
In the case of `CC(CNc1ncnc2c1ncn2[C@@H]1O[C@H](CO)[C@@H](O)[C@H]1O)(c1ccccc1)c1ccccc1` [Example 8, N^6-(2,2-Diphenylpropyl)adenosine], the minimal effective dose in data set [1] and in data set [4] was 10 mg/kg throughout. The “MAST ST LAD” value in data set [2] was >100 mg/kg. The 50% effective dose (ED50) in data set [3] is 5.6 mg/kg; in data set [6], 10.6 mg/kg. Besides, the EC50 is < 100 nM in data set [5] (setting [7]) and 3000 nM in data set [5] (setting [8]).
With `OC[C@H]1O[C@@H](n2cnc3c(NCC(c4ccccc4)c4ccc(F)cc4)ncnc32)[C@H](O)[C@@H]1O` (stereo partly shown) [Example 10, N^6-(2-(4-Fluorophenyl)-2-phenylethyl)adenosine], the minimal effective dose in data set [1] was determined as 3 mg/kg; in data set [4], 10 mg/kg. For the same compound, in data set [2], the “MAST ST LAD” value was >100 mg/kg. Also, in data set [3], the ED50 was 8.6 mg/kg. Further, the values for the EC50 in data set [5] (setting [7]) and in data set [5] (setting [8]) were 10 nM and 1400 nM, respectively.
Regarding `OC[C@H]1O[C@@H](n2cnc3c(NCC(c4ccccc4)c4ccc(Cl)cc4)ncnc32)[C@H](O)[C@@H]1O` (stereo partly shown) [Example 15, N^6-(2-(4-Chlorophenyl)-2-phenylethyl)adenosine], the minimal effective dose in data set [1] and in data set [4] was 10 mg/kg each time. Also, the “MAST ST LAD” value in data set [2] is reported as >100 mg/kg. Moreover, the 50% effective dose (ED50) in data set [3] is 12.7 mg/kg. In addition, the EC50 in data set [5] (setting [7]) is 30 nM; in data set [5] (setting [8]), > 3000 nM.
On to `CC(=O)OC[C@H]1O[C@@H](n2cnc3c(NCC(c4ccccc4)c4ccccc4)ncnc32)[C@H](OC(C)=O)[C@@H]1OC(C)=O` [Example 25, 2',3',5'-Tri-O-acetyl-N^6-(2,2-diphenylethyl)adenosine], for which the minimal effective dose in data set [1] was 3 mg/kg; in data set [4] it was 10 mg/kg. In data set [2], the “MAST ST LAD” value is reported as >100 mg/kg. The 50% effective dose (ED50) in data set [3] was 11.3 mg/kg. Also, the EC50 in data set [5] (setting [7]) stood at 1000 nM; in data set [5] (setting [8]), 2200 nM.
